Experimental data as given in US9808439B2 (Macau University of Science and Technology, priority 2015, dated 2017).
Where two headings read alike, the source gives them in different places.

Experiments:
A549/T cells = experiment: SRB cell cytotoxicity assay in A549/T; type: cell-based, human; details: for IC50: Homo sapiens
A2780/T cells [1] = experiment: SRB cell cytotoxicity assay in A2780/T; details: for fold reversal / IC50: A2780/T; for IC50: read-out: IC50 ± SD
Method: Sulphorhodamine B (SRB) assays were carried out as previously described to assess cell density, based on sensitive measure of total cellular protein, which performed similarly compared with other proliferation assays such as MTT assay. Briefly, cells were seeded into flat bottomed 96-well plates at an initial density of 7.5×10^3 per well before treatment. […] After removing the medium, cells were fixed in 10% trichloroacetic acid for 1 h at 4° C. and then washed with water five times. 0.4% SRB dissolved in 1% v/v acetic acid was added and incubated 30 mm for staining. The cells were quickly washed with 1% acetic acid and left to dry overnight. The protein bound SRB was solubilized by adding 200 μl 10 mM Tris buffer per well and measured at wavelengths 490 nm using a plate reader (Spectra MAX 250; Molecular Devices, Sunnyvale, Calif.).

A2780/T cells [2] = experiment: Combination index, Chou-Talalay method (CalcuSyn); type: cell-based, human
Method: Combination index (CI) was calculated to quantitatively depict synergistic ([…], additive (CI=1), or antagonistic (CI>1) effect. With the use of CalcuSyn software v. 2.1 (Bio-soft), synergy is further refined as synergism (combination index=0.3-0.7), strong synergism (combination index=0.1-0.3), and very strong synergism (combination index<0.1).

A2780/T cells [3] = experiment: Apoptosis by Annexin-V/PI double staining; type: cell-based, human; details: 7.53 μM tangeretin or 0.94 μM PTX alone
Method: After treatment, 1×10^6 cells were collected, washed and suspended in 100 μl of binding buffer (10 mM N-2-hydroxyethylpiperazine-N,-2-ethanesulfonic acid/NaOH, 140 mM NaCl, 2.5 mM CaCl2, pH 7.4). Apoptotic cells were identified by double supravital staining with 5 μl recombinant FITC (fluorescein isothiocyanate)-conjugated Annexin-V and 5 μl PI (50 μg/ml). The cells were stained for […] at room temperature in the dark, and analyzed by fluorescence-activated cell sorting cater-plus flow cytometry. Data acquisition and analysis were performed in BD FACS Aria with FlowJo software.

A2780 cells = experiment: Cell cycle analysis by flow cytometry in A2780; type: cell-based, human; details: A2780, PTX 0.01 μM
Method: (§1) A2780/T cells were harvested after 24-hours, 48-hour, or 72-hour treatment and washed twice with ice-cold PBS. The cells were fixed and permeabilized with 70% ice-cold ethanol overnight at 4° C. or −20° C. for 2 h. After one additional wash in PBS, cells were stained with a staining solution containing PI ([…]) and RNase A (250 μg/ml) for […] at room temperature. They were then pelleted, washed and suspended in PBS to a final concentration of 1×10^6/ml and analyzed by flow cytometry (BD FACS Aria, BD Biosciences, San Jose, Calif.).

A2780/T cells [4] = experiment: Cell cycle analysis by flow cytometry in A2780/T; type: cell-based, human; details: 48 h
Method: as §1

p53 = experiment: Western blot of p53 expression; type: cell-based, human; details: PTX in combination with tangeretin
Method: The total cellular samples were harvested and rinsed twice with ice-cold PBS buffer. Cell extracts were lysed in RIPA buffer (50 mM Tris (pH 7.4), 150 mM NaCl, 1% Triton X-100, 1% sodium deoxycholate, 0.1% SDS, sodium orthovanadate, sodium fluoride and EDTA) containing protease inhibitor cocktails (Roche Life Science, USA). Protein concentration was determined using the BCA protein assay kit. Equal amounts of cell lysates were resolved by SDS-PAGE and subsequently electrophoretically transferred onto PVDF membranes (Millipore, Darmstadt, Germany). After blocking in tris-buffered saline containing 0.1% of Tween20 (TBST) with 5% (w/v) skim milk (Nestle Carnation, New Zealand) for 2 h at room temperature, the membranes were incubated with primary and secondary antibodies and subsequently visualized with an enhanced chemiluminescence detection kit (Thermo Scientific™ SuperSignal™ West Pico Chemiluminescent Substrate, USA). β-Actin was used as the loading control for the experimental data analysis.

A2780/T cells [5] = experiment: Intracellular accumulation of DOX and Flutax-2 in A2780/T; type: cell-based, human; details: 8 h, 7.53 μM tangeretin or 20 μM QND
Method: cells (5×10^6) were cultured on the cover glass (ISO LAB 20×20 mm). […] After treatment, cells were fixed in 4 wt % formaldehyde (Sigma-Aldrich). Nuclear DNA was stained with 1 μg/mL blue-fluorescent DAPI (1 mg/mL in H2O stock solution; Invitrogen D1306). One drop of fluorescent preservation solution (fluorsave reagent, CALBIOCHEM) was added before observation. Imaging was carried out for comparing the intracellular accumulation of DOX and flutax-2 with a Fluorescence Microscopy (Leica DM2500, Leica, Germany). […] Cells were detached, re-suspended in 500 μl of PBS after washed twice with cold PBS, and analyzed by flow cytometry (BD FACS Aria, BD Biosciences, San Jose, Calif.). Excitation and emission wavelengths (nm) used for DOX and flutax-2 were as follows: 480 to 585; and 496 to 524.

[6] = A549, 48 h, A549/T, 48 h, drug alone, read-out: IC50 ± SD
[7] = A549, A549/T, +0.84 μM TG, read-out: IC50 ± SD
[8] = A549, A549/T, +5.21 μM TG, read-out: IC50 ± SD
[9] = A549, A549/T, +7.53 μM TG, read-out: IC50 ± SD
[10] = 0.94 μM PTX with 7.53 μM tangeretin
[11] = 0.94 μM PTX, absence of tangeretin

CC(=O)O[C@@]12CO[C@@H]1C[C@H](O)[C@@]1(C)C(=O)[C@H](O)C3=C(C)[C@@H](OC(=O)[C@H](O)[C@@H](NC(=O)OC(C)(C)C)c4ccccc4)C[C@@](O)([C@@H](OC(=O)c4ccccc4)[C@H]21)C3(C)C [Docetaxel, docetaxel] was tested, and the fold reversal (A549/T cells; A549/T, +0.84 μM TG) was 1.58, the fold reversal (A549/T cells; A549/T, +5.21 μM TG) was 3.82 and the fold reversal (A549/T cells; A549/T, +7.53 μM TG) was 12.07. For the same compound, the fold reversal (A549/T cells; A549/T, drug alone) was 1.00, the IC50 (A549/T cells; [6]) was 12.7 ± 2.06 µM and the IC50 (A549/T cells; [7]) was 7.8 ± 1.29 µM. It also gave an IC50 (A549/T cells; [8]) of 3.36 ± 0.28 µM, an IC50 (A549/T cells; [9]) of 1.06 ± 0.08 µM and a fold reversal (A2780/T cells [1]; +0.84 μM TG) of 1.99. For the same compound, the fold reversal (A2780/T cells [1]; +5.21 μM TG) was 7.95, the fold reversal (A2780/T cells [1]; +7.53 μM TG) was 33.66 and the fold reversal (A2780/T cells [1]; drug alone) was 1.00. For the same compound, the IC50 (A2780/T cells [1]; 48 h, drug alone) was 28.4 ± 4.59 µM, the IC50 (A2780/T cells [1]; +0.84 μM TG) was 14.2 ± 2.31 µM and the IC50 (A2780/T cells [1]; +5.21 μM TG) was 3.57 ± 0.58 µM. For the same compound, the IC50 (A2780/T cells [1]; +7.53 μM TG) was 0.84 ± 0.07 µM.
Compound CC(=O)O[C@H]1C(=O)[C@@]2(C)[C@H]([C@H](OC(=O)c3ccccc3)[C@]3(O)C[C@H](OC(=O)[C@H](O)[C@@H](NC(=O)c4ccccc4)c4ccccc4)C(C)=C1C3(C)C)[C@]1(OC(C)=O)CO[C@@H]1C[C@@H]2O [Paclitaxel, paclitaxel] has a fold reversal (A549/T cells; A549/T, +0.84 μM TG) of 2.67, a fold reversal (A549/T cells; A549/T, +2.51 μM TG) of 9.52 and a fold reversal (A549/T cells; A549/T, +5.21 μM TG) of 9.52. The fold reversal (A549/T cells; A549/T, +7.53 μM TG) was 80.05, the fold reversal (A549/T cells; A549/T, drug alone) was 1.00 and the IC50 (A549/T cells; [6]) was 2.53 ± 0.41 µM. For the same compound, the IC50 (A549/T cells; [7]) was 1.03 ± 0.33 µM, the IC50 (A549/T cells; [8]) was 0.27 ± 0.02 µM and the IC50 (A549/T cells; [9]) was 0.03 ± 0.01 µM. The EC50 (A2780/T cells [2]; Homo sapiens, CalcuSyn simulation, alone or in combination, read-out: Dose PTX at Fa 0.5 (ED50)) was 3.61 µM, the “decrease for the ED50 dose of PTX” value (A2780/T cells [2]; combination with tangeretin versus PTX alone) was 18 fold and the “apoptosis induction, single treatment” value (A2780/T cells [3]) was “did not show apoptosis induction”. For the same compound, the G1 phase content (A2780 cells; 24 hours) was 30.95%, the G2-M content (A2780 cells; 24 hours) was 52.63% and the G1 phase content (A2780 cells; 48 hours) was 14.13%. The G2-M content (A2780 cells; 48 hours) was 62.33%, the G1 phase content (A2780 cells; 72 hours) was 13.07% and the G2-M content (A2780 cells; 72 hours) was 74.20%. It also gave a G1 phase cells (A2780/T cells [4]; [10]) of 13.87%, a G2 phase cells (A2780/T cells [4]; [10]) of 72.37% and a G1 phase cells (A2780/T cells [4]; [11]) of 68.30%. The G2 phase cells (A2780/T cells [4]; [11]) was 18.87%, the “accumulation of p53” value (p53) was “accumulation of p53” and the “mean IC50 in A2780/T greater than that of A2780 (degree of resistance)” value (A2780/T cells [1]; A2780/T versus parental A2780) was 501 fold. It also gave a fold reversal (A2780/T cells [1]; +0.84 μM TG) of 1.59, a fold reversal (A2780/T cells [1]; +5.21 μM TG) of 5.66 and a fold reversal (A2780/T cells [1]; +7.53 μM TG) of 18.88. It also gave a fold reversal (A2780/T cells [1]; drug alone) of 1.00, an IC50 (A2780/T cells [1]; 48 h, drug alone) of 2.51 µM and an IC50 (A2780/T cells [1]; +0.84 μM TG) of 1.58 ± 0.04 µM. The IC50 (A2780/T cells [1]; +5.21 μM TG) was 0.45 ± 0.07 µM and the IC50 (A2780/T cells [1]; +7.53 μM TG) was 0.14 ± 0.02 µM.
Compound O=c1[nH]cc(F)c(=O)[nH]1 [5-Fluorouracil, 5-fluorouracil] has a fold reversal (A549/T cells; A549/T, +0.83 μM TG) of 1.34, a fold reversal (A549/T cells; A549/T, +2.51 μM TG) of 2.12 and a fold reversal (A549/T cells; A549/T, +7.53 μM TG) of 6.05. For the same compound, the fold reversal (A549/T cells; A549/T, drug alone) was 1.00, the IC50 (A549/T cells; [6]) was 142 ± 23.1 µM and the IC50 (A549/T cells; A549, A549/T, +0.83 μM TG, read-out: IC50 ± SD) was 106 ± 8.63 µM. It also gave an IC50 (A549/T cells; A549, A549/T, +2.51 μM TG, read-out: IC50 ± SD) of 67 ± 5.44 µM, an IC50 (A549/T cells; [9]) of 23.8 ± 1.93 µM and a fold reversal (A2780/T cells [1]; +0.83 μM TG) of 1.19. It also gave a fold reversal (A2780/T cells [1]; +2.51 μM TG) of 2.12, a fold reversal (A2780/T cells [1]; +7.53 μM TG) of 6.31 and a fold reversal (A2780/T cells [1]; drug alone) of 1.00. The IC50 (A2780/T cells [1]; 48 h, drug alone) was 179 ± 29 µM, the IC50 (A2780/T cells [1]; +0.83 μM TG) was 152 ± 36.7 µM and the IC50 (A2780/T cells [1]; +2.51 μM TG) was 84.3 ± 6.56 µM. For the same compound, the IC50 (A2780/T cells [1]; +7.53 μM TG) was 28.4 ± 4.6 µM.
In the case of C=C[C@H]1C[N@@]2CC[C@H]1C[C@@H]2[C@@H](O)c1ccnc2ccc(OC)cc12 [QND, quinidine], the “intracellular accumulations of DOX and Flutax-2” value (A2780/T cells [5]) is reported as “higher than that of untreated A2780/T”.
Compound COc1cccc2c1C(=O)c1c(O)c3c(c(O)c1C2=O)C[C@@](O)(C(C)=O)C[C@@H]3O[C@H]1C[C@H](N)[C@H](O)[C@H](C)O1 [Daunorubicin, daunorubicin] has a fold reversal (A549/T cells; A549/T, +0.84 μM TG) of 1.41, a fold reversal (A549/T cells; A549/T, +5.21 μM TG) of 2.25 and a fold reversal (A549/T cells; A549/T, +7.53 μM TG) of 6.36. It also gave a fold reversal (A549/T cells; A549/T, drug alone) of 1.00, an IC50 (A549/T cells; A549, 48 h, read-out: IC50 ± SD, A549/T, 48 h, drug alone) of 6.7 ± 0.54 µM and an IC50 (A549/T cells; A549, read-out: IC50 ± SD, A549/T, +0.84 μM TG) of 4.74 ± 0.38 µM. For the same compound, the IC50 (A549/T cells; A549, read-out: IC50 ± SD, A549/T, +5.21 μM TG) was 2.99 ± 0.24 µM, the IC50 (A549/T cells; A549, read-out: IC50 ± SD, A549/T, +7.53 μM TG) was 1.06 ± 0.08 µM and the fold reversal (A2780/T cells [1]; +0.84 μM TG) was 1.34. It also gave a fold reversal (A2780/T cells [1]; +5.21 μM TG) of 2.25, a fold reversal (A2780/T cells [1]; +7.53 μM TG) of 8.03 and a fold reversal (A2780/T cells [1]; drug alone) of 1.00. For the same compound, the IC50 (A2780/T cells [1]; 48 h, drug alone) was 7.51 ± 0.61 µM, the IC50 (A2780/T cells [1]; +0.84 μM TG) was 5.66 ± 0.92 µM and the IC50 (A2780/T cells [1]; +5.21 μM TG) was 3.4 ± 0.82 µM. The IC50 (A2780/T cells [1]; +7.53 μM TG) was 0.96 ± 0.23 µM.
